Among the data in US4387238A, “Epoxysuccinamic acid compounds” (Taisho Pharmaceutical Co., Ltd., priority 1978, dated 1983) are ID50 values, retold here.

This test has as its target T1, papain (Carica papaya, UniProt P00784).
T1 construct: purchased Sigma Chem. Co
T1 sequence (P00784 134-345): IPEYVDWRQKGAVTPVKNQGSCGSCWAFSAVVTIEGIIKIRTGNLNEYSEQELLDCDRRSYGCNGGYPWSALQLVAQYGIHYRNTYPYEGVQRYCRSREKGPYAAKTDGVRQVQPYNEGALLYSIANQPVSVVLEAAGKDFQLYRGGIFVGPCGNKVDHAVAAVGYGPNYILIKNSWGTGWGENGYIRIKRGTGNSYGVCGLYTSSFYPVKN
Put plainly: Papain inhibitory activity (milk casein proteolysis). The class given is biochemical. Also on record: unit not given beside the values. The settings on record: amount of inhibitor for 50% inhibition; pH 6.8, 40° C., casein substrate. As to the method:
Papain inhibitory activity of the compounds of the present invention was assayed as follows: To 0.5 ml of a solution of papain (80 μg/ml, Sigma Chem. Co., 2x, cry.), were added 0.25 ml of 40 mM cysteine dissolved in 20 mM disodium ethylenediamine tetraacetic acid solution adjusted pH to 6.8 with sodium hydroxide and 0.25 ml of 33 mM phosphate buffer (pH 6.8) with or without inhibitor. After incubation for 15 minutes at 40° C., the resulting mixture was added to 5 ml of 1% milk casein solution in the same buffer as described above, and further incubated for 10 minutes at 40° C. Then the mixture was mixed with 5 ml of 0.44 M trichloroacetic acid solution and followed by filtration with a sheet of Toyo filter paper No. 4.
The extinction of the filtrate was read at 280 nm. The percent inhibition was calculated from the formula, 100×(B-A)/B; wherein B stands for the absorbance without inhibitor and A for the absorbance with inhibitor. The compound Nos. in Table 2 are as defined in Examples as described hereinafter.
Turning to `O=C(O)C1OC1C(=O)N1CCCC1C(=O)O` (stereo not drawn) [Compound No. 99, potassium N-1'-carbopotassium oxytetramethylene-2,3-epoxysuccinamate], the ID50 was 0.104 γ.

`CCOC(=O)[C@@H]1O[C@H]1C(=O)NCC1CCCCC1` (relative stereo) [Compound No. 20, ethyl N-cyclohexanemethyl-2,3-epoxysuccinamate]: the ID50 is reported as 20.49 γ.

As to `CCOC(=O)[C@@H]1O[C@H]1C(=O)Nc1ccccc1C(=O)O` (relative stereo) [Compound No. 81, ethyl N-2'-carboxyphenyl-2,3-epoxysuccinamate], the ID50 is given as 36.76 γ.

`C=CCOC(=O)[C@H]1O[C@@H]1C(=O)NCC1CCCC1` (relative stereo) [compound 38, Allyl N-cyclopentanemethyl-2,3-epoxysuccinamate]: the ID50 is given as 4.26 γ.

For `CCOC(=O)[C@@H]1O[C@H]1C(=O)Nc1cccc2cccnc12` (relative stereo) [Compound No. 12, ethyl N-8'-quinolinyl-2,3-epoxysuccinamate], the ID50 is 20.16 γ.

Consider `O=C(Nc1ccccc1)[C@@H]1O[C@H]1C(=O)OCCCC1CCCCC1` (relative stereo) [Compound No. 27, 3'-cyclohexylpropyl N-phenyl-2,3-epoxysuccinamate], for which the ID50 is recorded as 3.05 γ.

In the case of `CNC(=O)[C@@H]1O[C@H]1C(=O)OCCC(C)C` (relative stereo) [Compound No. 89, Isoamyl N-methyl-2,3-epoxysuccinamate], the ID50 was 14.81 γ.

Regarding `CCOC(=O)C1OC1C(=O)N1CCSCC1C` (stereo not drawn) [Compound No. 80, Ethyl N-1'-methylthiadiethylene-2,3-epoxysuccinamate], the ID50 is on record as 120.53 γ.

`O=C(Nc1ccccc1)[C@@H]1O[C@H]1C(=O)OCC1CCCCC1` (relative stereo) [Compound No. 94, cyclohexanemethyl N-phenyl-2,3-epoxysuccinamate]: the ID50 was 1.51 γ.

Turning to `COc1ccccc1NC(=O)[C@@H]1O[C@H]1C(=O)OCc1ccccc1` (relative stereo) [Compound No. 29, benzyl N-2'-methoxyphenyl-2,3-epoxysuccinamate], the ID50 is recorded as 2.91 γ.

In the case of `CC(C)CCOC(=O)[C@H]1O[C@@H]1C(=O)Nc1ccccc1` (relative stereo) [Compound No. 43, Isoamyl N-phenyl-2,3-epoxysuccinamate], the ID50 is listed as 3.01 γ.

For the compound `CCCCOC(=O)[C@H]1O[C@@H]1C(=O)Nc1ccccc1` (relative stereo) [Compound No. 52, butyl N-phenyl-2,3-epoxysuccinamate], the ID50 is given as 5.32 γ.

Consider `CCOC(=O)[C@@H]1O[C@H]1C(=O)NCc1ccccc1` (relative stereo) [Compound No. 13, ethyl N-benzyl-2,3-epoxysuccinamate], for which the ID50 is reported as 13.30 γ.

Consider `CC(C)NC(=O)[C@H]1O[C@@H]1C(=O)OCc1ccccc1` (relative stereo) [Compound No. 67, Benzyl N-isopropyl-2,3-epoxysuccinamate], for which the ID50 was 5.14 γ.

Consider `O=C(Nc1ccccc1)[C@@H]1O[C@H]1C(=O)OCCC1CCCC1` (relative stereo) [Compound No. 26, 2'-cyclopentylethyl N-phenyl-2,3-epoxysuccinamate], for which the ID50 is listed as 2.08 γ.

`CCOC(=O)[C@H]1O[C@@H]1C(=O)NCCCCCNC(=O)OCc1ccccc1` (relative stereo) [Compound No. 69, ethyl N-carbobenzoxyaminopentyl-2,3-epoxysuccinamate]: the ID50 is reported as 12.05 γ.

For `CCOC(=O)[C@@H]1O[C@H]1C(=O)Nc1ccc(Br)cc1` (relative stereo) [Compound No. 6, ethyl N-4'-bromophenyl-2,3-epoxysuccinamate], the ID50 is on record as 25.51 γ.

As to `CCCNC(=O)[C@@H]1O[C@H]1C(=O)OCC` (relative stereo) [Compound No. 16, ethyl N-propyl-2,3-epoxysuccinamate], the ID50 was 22.73 γ.
